Experimental data published in PubChem BioAssay (NCI).
Where “and” joins values, the source holds several entries; their conditions need not be identical. Identical values can stand only once.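 Where inhibition never reached the appropriate level, the endpoint shown equals the highest concentration tested. Otherwise, values were interpolated linearly from a five-concentration, 48-hour dose response in 96-well plates. Here, GI50 denotes the concentration required for 50% inhibition of growth. At the TGI there is no net growth.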

Columns and labels:
Experiment in all cases: DTP human tumour cell line panel, 48 h
[1] = tested on: HL-60(TB) leukemia
[2] = tested on: HCT-116 colon
[3] = tested on: SR leukemia
[4] = tested on: SK-MEL-2 melanoma
[5] = tested on: DU-145 prostate
[6] = tested on: A498 renal
[7] = tested on: MALME-3M melanoma
[8] = tested on: SNB-19 CNS
[9] = tested on: U251 CNS
[10] = tested on: CCRF-CEM leukemia

| Structure (SMILES) | GI50 [1] | TGI [1] | GI50 [2] | TGI [2] | GI50 [3] | TGI [3] | GI50 [4] | TGI [4] | GI50 [5] | TGI [5] | GI50 [6] | TGI [6] | GI50 [7] | TGI [7] | GI50 [8] | TGI [8] | GI50 [9] | TGI [9] | GI50 [10] | TGI [10] |
| --- | --- | --- | --- | --- | --- | --- | --- | --- | --- | --- | --- | --- | --- | --- | --- | --- | --- | --- | --- | --- |
| CC(=O)Nc1ccc2c(c1)c(C1=C(c3cn(C)c4ccccc34)C(=O)NC1=O)cn2C | 913 nM | 4900 nM | 1090 nM | > 25000 nM | 675 nM | > 17000 nM | 940 nM | 5740 nM | 4020 nM | > 25000 nM | 538 nM | 1790 nM | > 9930 nM | > 25000 nM | > 18200 nM | > 25000 nM | 1160 nM | > 25000 nM | 991 nM | > 25000 nM |
| CNc1ccc2nc3ccc(=[N+](C)C)cc-3sc2c1 | 236 nM and 343 nM | 1410 nM and 3390 nM | 304 nM and 246 nM | 8700 nM and 1470 nM | 635 nM and 2220 nM | 12100 nM and > 100000 nM | 1120 nM and 1070 nM | 3810 nM and 5250 nM | 3600 nM and 2760 nM | 16100 nM and 11900 nM | 2980 nM and 6490 nM | 25400 nM and 28200 nM | 335 nM and 482 nM | 2360 nM and 1970 nM | 747 nM and 324 nM | 8830 nM and 6110 nM | 412 nM and 267 nM | 5600 nM and 1680 nM | 432 nM and 489 nM | 17000 nM and > 100000 nM |
| N=C1C(c2nc(-c3ccc(Br)cc3)cs2)=C(O)CN1Cc1cccnc1 | 3420 nM | 20200 nM | 1750 nM | 24000 nM | 17300 nM | 67200 nM | 11200 nM | 80500 nM | 17400 nM | 63100 nM | 1900 nM | 5230 nM | 14600 nM | > 100000 nM | 40100 nM | > 100000 nM | 22100 nM | > 100000 nM | 4280 nM | 65800 nM |
| COc1nc(N(C)O)nc(N(C)O)n1 | 1680 nM | 9100 nM | 402 nM | 3880 nM | 391 nM | 4350 nM | 6100 nM | > 100000 nM | 858 nM | > 100000 nM | 7190 nM | 80500 nM | 2220 nM | 24000 nM | 2380 nM | > 100000 nM | 716 nM | > 100000 nM | 624 nM | > 100000 nM |
| COc1cccc(C2CC(C)(N3CCCC3)Oc3cc4c(cc32)OCO4)c1O (centres undefined) |  | > 54200 nM |  | > 63600 nM |  | 31600 nM |  | 55800 nM |  | > 96300 nM |  | > 100000 nM |  | > 100000 nM |  | > 100000 nM |  | 77400 nM |  | > 83300 nM |
| C=C1CC2(OC1=O)C(=O)N(CCCCCCCN1C(=O)C3(CC(=C)C(=O)O3)c3ccccc31)c1ccccc12 (centres undefined) | 992 nM | 3210 nM | 1490 nM | 5070 nM | 475 nM | 3580 nM | 7510 nM | 17200 nM | 2890 nM | 9490 nM | 5170 nM | 13100 nM | 955 nM | 2090 nM | 8520 nM | 22000 nM | 5810 nM | 12400 nM | 896 nM | 6420 nM |
| CCN(CC)CCOc1nc2ccc(OC)cc2c2c1-c1ccc(OC)cc1C2=O | 1060 nM | 3370 nM | 368 nM | 1640 nM | 344 nM | 1690 nM | 2240 nM | 4050 nM | 626 nM | 1880 nM | 802 nM | 2170 nM | 1680 nM | 3220 nM | 922 nM | 3190 nM | 454 nM | 1720 nM | 299 nM | 3260 nM |
| C[C@@H]1C[C@@H](O)[C@]2(O)O[C@@H]3C[C@@]4(C=O)[C@@H](CC[C@@H]5[C@@H]4CC[C@]4(C)[C@@H](C6=CC(=O)OC6)CC[C@]54O)C[C@H]3O[C@@H]2O1 | 15 nM and 6.92 nM | 28.5 nM and 32.2 nM and 16.9 nM | 19.7 nM | 53.2 nM and 122 nM | 13 nM | 12.8 nM and 31.7 nM | 52 nM and 89.8 nM |  |  | 111 nM | 9.98 nM | 115 nM and 39.9 nM | 25.6 nM and 16.3 nM | 32 nM and 80.2 nM and 99.4 nM | 101 nM and 19.7 nM | 145 nM and 217 nM and 184 nM | 44.9 nM and 15.3 nM | 72.5 nM and 158 nM and 69.7 nM | 5 nM | 39.1 nM and 22.3 nM |
| CN1CC[C@@H](c2c(O)cc(O)c3c(=O)cc(-c4ccccc4Cl)oc23)[C@@H](O)C1 | 14.8 nM | 69.3 nM and 338 nM | 33.8 nM and 25.8 nM | 27500 nM | 14 nM | 46.8 nM and 277 nM | 124 nM and 71 nM | 215 nM and 209 nM and 101 nM | 77.4 nM and 90.2 nM |  | 60.4 nM | 181 nM and 1130 nM | 166 nM and 144 nM | 439 nM and 465 nM | 103 nM | > 37300 nM |  | 31000 nM | 38 nM and 41.2 nM |  |
| COc1ccc2c(c1)[nH]c(=O)c1c3cc(C)c(C)cc3cn21 | < 10 nM | < 13 nM | < 10 nM | 516 nM | < 15.2 nM | 224 nM | < 20.8 nM | 6190 nM | < 10 nM | 188 nM | < 10 nM | < 29.5 nM | 161 nM | 2760 nM | < 22.6 nM | 4660 nM | < 10 nM | 1200 nM | < 14.9 nM |  |
| C=CCn1c2c(c3ccccc3c1=O)C(=O)c1ccccc1-2 |  | > 100000 nM |  | > 100000 nM |  | > 100000 nM |  | > 100000 nM |  | > 100000 nM |  | > 100000 nM |  | > 100000 nM |  | > 100000 nM |  | > 100000 nM |  | > 100000 nM |
| COc1cc(/C(C#N)=C/c2ccc3c(c2OC)OCO3)cc2c1OCO2 | 31.4 nM | 922 nM | 49.2 nM | > 35700 nM | 24.4 nM | 5370 nM | 46.1 nM | 6460 nM | 122 nM | 3630 nM | 51 nM | 785 nM | 264 nM | 41100 nM | 236 nM | 20400 nM | 110 nM | 14000 nM | 60.1 nM | 4620 nM |
| Cc1cc(-c2ncc(CC(=O)Nc3ccc(-c4cnccn4)cn3)cc2C)ccn1 | 39300 nM | > 100000 nM | 49000 nM | > 100000 nM | 18400 nM | > 100000 nM | 27800 nM | > 100000 nM | 72900 nM | > 100000 nM | 2800 nM | 65500 nM | 21200 nM | > 100000 nM | 34600 nM | > 100000 nM | 24600 nM | > 100000 nM | 35800 nM | > 100000 nM |
| COc1cc(O)c([C@@H]2C[C@H](CCc3ccc(O)cc3)O[C@H](c3ccc(O)cc3)C2)c(O)c1C(=O)/C=C/c1ccc(O)cc1 | 2130 nM | 5200 nM | 2740 nM | 8270 nM | 2420 nM | 4800 nM | 2380 nM | 6860 nM | 3150 nM | 10100 nM | 4240 nM | 11300 nM | 3390 nM | > 30800 nM | 3370 nM | 10600 nM | 2810 nM | 9220 nM | 2320 nM | 7360 nM |
| Nc1nc(SCc2ccccn2)c2ncn(C3CCCC3)c2n1 |  | > 100000 nM |  | > 100000 nM |  | > 100000 nM |  | > 100000 nM |  | > 100000 nM |  | > 100000 nM |  | > 100000 nM |  | > 100000 nM |  | > 100000 nM |  | > 100000 nM |
| CN(C)c1cccc2c(S(=O)(=O)N[C@H]3CC[C@H]4[C@@H]5CCc6cc(O)ccc6[C@H]5CC[C@]34C)cccc12 | 2780 nM | 8230 nM | 2270 nM | 5850 nM | 2790 nM | > 100000 nM | 2370 nM | 5480 nM | 2710 nM | 8510 nM | 1750 nM | 4000 nM | 1900 nM | 5610 nM | 3430 nM | > 100000 nM | 2940 nM | 10400 nM | 3250 nM | > 100000 nM |
